{
  "source": "ChEMBL document CHEMBL6121032",
  "about": "“Mining Druggable Sites in Influenza A Hemagglutinin: Binding of the Pinanamine-Based Inhibitor M090” (ACS Med Chem Lett, 2025)",
  "test_system": "Influenza A virus",
  "test": "Antiviral activity against Influenza virus A/WSN/33 expressing M2 S31N mutant channel infected in MDCK cells by plaque reduction assay",
  "assay_type": "functional, organism-based",
  "data": [
    {"smiles": "Brc1ccc(CNC23CC4CC(CC(C4)C2)C3)s1", "values": [
      {"measurement": "EC50", "result": 1.8, "unit": "mM"}
    ]}
  ]
}
